In patent US9822130B2, “Triazolo-pyrazinyl derivatives useful as soluble guanylate cyclase activators” (Merck Sharp & Dohme Corp., priority 2014, dated 2017):

Target: T1, sGC α1/β1 heterodimer stably expressed in CHO-K1 cell line (CHO-K1/sGC) (Homo sapiens, UniProt Q02108+Q02153)
T1 construct: expressed in transfected cells
T1 sequence (Q02108 1-690): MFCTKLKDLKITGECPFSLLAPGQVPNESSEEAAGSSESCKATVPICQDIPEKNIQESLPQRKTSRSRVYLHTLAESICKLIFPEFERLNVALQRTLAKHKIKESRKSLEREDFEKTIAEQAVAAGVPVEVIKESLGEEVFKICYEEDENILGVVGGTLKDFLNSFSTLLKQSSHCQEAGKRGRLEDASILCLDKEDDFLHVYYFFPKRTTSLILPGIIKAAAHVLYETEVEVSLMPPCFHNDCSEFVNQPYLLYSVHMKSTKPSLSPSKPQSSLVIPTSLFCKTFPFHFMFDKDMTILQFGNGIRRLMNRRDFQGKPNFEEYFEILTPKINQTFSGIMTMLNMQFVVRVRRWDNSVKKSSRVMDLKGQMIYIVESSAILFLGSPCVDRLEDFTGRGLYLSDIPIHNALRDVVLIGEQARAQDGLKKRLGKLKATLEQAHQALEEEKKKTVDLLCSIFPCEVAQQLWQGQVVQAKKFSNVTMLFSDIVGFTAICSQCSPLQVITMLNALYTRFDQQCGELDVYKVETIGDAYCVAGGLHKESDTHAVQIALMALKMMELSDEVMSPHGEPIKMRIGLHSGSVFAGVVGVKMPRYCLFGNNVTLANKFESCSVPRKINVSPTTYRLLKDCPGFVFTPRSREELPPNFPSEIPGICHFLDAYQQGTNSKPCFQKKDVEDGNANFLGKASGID
T1 sequence (Q02153 1-619): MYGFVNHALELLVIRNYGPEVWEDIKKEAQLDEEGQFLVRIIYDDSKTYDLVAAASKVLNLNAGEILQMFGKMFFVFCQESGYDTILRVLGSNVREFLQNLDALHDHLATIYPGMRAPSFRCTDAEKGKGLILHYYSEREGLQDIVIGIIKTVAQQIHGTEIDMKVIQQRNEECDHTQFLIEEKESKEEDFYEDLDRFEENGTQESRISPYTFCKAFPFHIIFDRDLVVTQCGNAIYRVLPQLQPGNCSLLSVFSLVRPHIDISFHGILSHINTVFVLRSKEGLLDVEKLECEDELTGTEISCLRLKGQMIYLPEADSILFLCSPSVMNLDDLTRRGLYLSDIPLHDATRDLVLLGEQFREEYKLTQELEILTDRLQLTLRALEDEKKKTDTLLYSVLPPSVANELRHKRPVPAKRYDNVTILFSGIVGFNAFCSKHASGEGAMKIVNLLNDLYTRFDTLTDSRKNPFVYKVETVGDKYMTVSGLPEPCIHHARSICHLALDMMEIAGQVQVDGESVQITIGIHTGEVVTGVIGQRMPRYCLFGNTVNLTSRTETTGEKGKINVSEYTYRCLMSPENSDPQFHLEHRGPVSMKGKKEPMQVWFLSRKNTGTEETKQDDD
Assay: Cell-based sGC Functional Assay (CASA Assay), cGMP generation
Conditions: CHO-K1/sGC cells, 1 hr at 37° C., cGMP by HTRF, 4P fit; presence or absence of 1 μM DETA-NO not given; read-out: IP (nM) (inflection point)
Text: sGC is a heme-containing enzyme that converts GTP to secondary messenger cGMP. Increases in cGMP levels affect several physiological processes including vasorelaxation through multiple downstream pathways. […] Heme-dependent activators (HDAs) preferentially activate sGC containing a ferrous heme group. To determine the effect of sGC activators on enzyme activity, the CASA assay was developed to monitor the generation of cGMP in a cell line that stably expresses the heterodimeric sGC protein.
A CHO-K1 cell line stably expressing the sGC α1/β1 heterodimer was generated using a standard transfection protocol. CHO-K1 cells were transfected with plasmids pIREShyghsGCα1 and pIRESneo-hsGCβ1 simultaneously using FUGENE reagent. Clones that stably express both subunits were selected with hygromycin and neomycin for ˜2 weeks. Clone #7 was chosen for the assay and was designated CHO-K1/sGC. CHO-K1/sGC cells were maintained in F-K12 medium containing 10% heat-inactivated Fetal Bovine Serum (FBS), 100 μg/mL penicillin/streptomycin, 0.5 mg/mL hygromycin and 0.25 mg/mL G418. The cells were then cryopreserved in LN2. On the day of the assay, cells thawed and resuspended in EBSS Assay Buffer (Sigma, E3024) supplemented with 5 mM MgCl2, 10 mM HEPES (4-(2-hydroxyethyl)piperazine-1-ethanesulfonic acid) and 0.05% BSA (bovine serum albumin) (EAB) and cell density was then adjusted to 4×10^5/mL with EAB, IBMX (3-isobutyl-1-methylxanthin, 0.5 mM) was added to inhibit degradation of cGMP. Compounds were diluted from DMSO stock solutions and added to the assay at a final DMSO concentration of 2.5%. Cells were incubated with compounds in the presence and absence of 1 μM of Diethylenetriamine/nitric oxide adduct (DETA-NO; Sigma, 17018) for 1 hr at 37° C. At the end of the incubation period, the reaction was terminated and the cells were lysed with the detection reagents from Cisbio Kits. The level of intracellular cGMP was determined using an HTRF-based assay kit (CisBio, 62GM2PEC), which detects the displacement of a fluorescence labeled cGMP from its specific antibody. The cGMP produced by test compounds was directly compared to the maximum cGMP production (this value was set to equal 100% activation.) of the published sGC-HDA Compound A:
[drawing 300] (Example 1 in WO 2010/065275, published Jun. 10, 2010). The test compounds' activities were then expressed as a percentage of Compound A, the standard in every experiment. This percent activation was calculated either in the presence or absence of DETA-NO which was then plotted. IP and maximum fold induction was derived using ADA analysis software for 4P fit.
The compounds in the Examples of the instant invention had inflection points (IP) less than or equal to 10 μM and more particularly less than or equal to about 1 μM.

Structure (SMILES) | EC50
Nc1nc(-c2cn3ncnc3c(CCCC(F)(F)F)n2)nc2c1C(c1ccc(Cl)cn1)(C1CC1)C(=O)N2 (centres unmarked) [Example 27A, 4-amino-5-(5-chloropyridin-2-yl)-5-cyclopropyl-2-(8-(4,4,4-trifluorobutyl)-[1,2,4]triazolo[1,5-a]pyrazin-6-yl)-5H-pyrrolo[2,3-d]pyrimidin-6(7H)-one] | 278 nM
CC1(c2ccc(Cl)c(F)c2)C(=O)Nc2nc(-c3cn4ncnc4c(CCCC(F)(F)F)n3)nc(N)c21 (centres unmarked) [Example 28B, 4-amino-5-(4-chloro-3-fluorophenyl)-5-methyl-2-(8-(4,4,4-trifluorobutyl)-[1,2,4]triazolo[1,5-a]pyrazin-6-yl)-5H-pyrrolo[2,3-d]pyrimidin-6(7H)-one] | 20 nM
CC1(c2ccc(Cl)cc2)C(=O)Nc2nc(-c3cn4ncnc4c(CCCC(F)(F)F)n3)nc(N)c21 (centres unmarked) [Example 29A, 4-amino-5-(4-chlorophenyl)-5-methyl-2-(8-(4,4,4-trifluorobutyl)-[1,2,4]triazolo[1,5-a]pyrazin-6-yl)-5H-pyrrolo[2,3-d]pyrimidin-6(7H)-one] | 11.4 nM
Nc1nc(-c2cn3ncnc3c(CCCC(F)(F)F)n2)nc2c1C(c1ccc(F)cc1)(C1CC1)C(=O)N2 (centres unmarked) [Example 30B, 4-amino-5-cyclopropyl-5-(4-fluorophenyl)-2-(8-(4,4,4-trifluorobutyl)-[1,2,4]triazolo[1,5-a]pyrazin-6-yl)-5H-pyrrolo[2,3-d]pyrimidin-6(7H)-one] | 36.7 nM
Nc1nc(-c2cn3ncnc3c(CCCC(F)(F)F)n2)nc2c1C(c1ccc(Cl)cc1)(C1CC1)C(=O)N2 (centres unmarked) [Example 31B, 4-amino-5-(4-chlorophenyl)-5-cyclopropyl-2-(8-(4,4,4-trifluorobutyl)-[1,2,4]triazolo[1,5-a]pyrazin-6-yl)-5H-pyrrolo[2,3-d]pyrimidin-6(7H)-one] | 13 nM
Nc1nc(-c2cn3ncnc3c(CCCC(F)(F)F)n2)nc2c1C(c1ccc(F)c(F)c1)(C1CC1)C(=O)N2 (centres unmarked) [Example 32A, 4-amino-5-cyclopropyl-5-(3,4-difluorophenyl)-2-(8-(4,4,4-trifluorobutyl)-[1,2,4]triazolo[1,5-a]pyrazin-6-yl)-5H-pyrrolo[2,3-d]pyrimidin-6(7H)-one] | 77.4 nM
Nc1nc(-c2cn3ncnc3c(CCCC(F)(F)F)n2)nc2c1C(c1ccc(Cl)c(F)c1)(C1CC1)C(=O)N2 (centres unmarked) [Example 33A, 4-amino-5-(4-chloro-3-fluorophenyl)-5-cyclopropyl-2-(8-(4,4,4-trifluorobutyl)-[1,2,4]triazolo[1,5-a]pyrazin-6-yl)-5H-pyrrolo[2,3-d]pyrimidin-6(7H)-one] | 5.6 nM
Nc1nc(-c2cn3ncnc3c(CCCC(F)(F)F)n2)nc2c1C(c1ccc(F)cn1)(C1CC1)C(=O)N2 (centres unmarked) [Example 34A, 4-amino-5-cyclopropyl-5-(5-fluoropyridin-2-yl)-2-(8-(4,4,4-trifluorobutyl)-[1,2,4]triazolo[1,5-a]pyrazin-6-yl)-5H-pyrrolo[2,3-d]pyrimidin-6(7H)-one] | 428 nM
Nc1nc(-c2cn3ncnc3c(CCCC(F)(F)F)n2)nc2c1C(c1ccc(C(F)(F)F)cc1)(C1CC1)C(=O)N2 (centres unmarked) [Example 35A, 4-amino-5-cyclopropyl-2-(8-(4,4,4-trifluorobutyl)-[1,2,4]triazolo[1,5-a]pyrazin-6-yl)-5-(4-(trifluoromethyl)phenyl)-5H-pyrrolo[2,3-d]pyrimidin-6(7H)-one] | 416 nM
CC1(c2ccccn2)C(=O)Nc2nc(-c3cn4ncnc4c(CCCC(F)(F)F)n3)nc(N)c21 (centres unmarked) [Example 36B, 4-amino-5-methyl-5-(pyridin-2-yl)-2-(8-(4,4,4-trifluorobutyl)-[1,2,4]triazolo[1,5-a]pyrazin-6-yl)-5H-pyrrolo[2,3-d]pyrimidin-6(7H)-one] | 56.5 nM
CC1(c2ccccc2)C(=O)Nc2nc(-c3cn4ncnc4c(CCCC(F)(F)F)n3)nc(N)c21 (centres unmarked) [Example 37B, 4-amino-5-methyl-5-phenyl-2-(8-(4,4,4-trifluorobutyl)-[1,2,4]triazolo[1,5-a]pyrazin-6-yl)-5H-pyrrolo[2,3-d]pyrimidin-6(7H)-one] | 11.5 nM
CC1(c2ccc(F)c(F)c2)C(=O)Nc2nc(-c3cn4ncnc4c(CCCC(F)(F)F)n3)nc(N)c21 (centres unmarked) [Example 38B, 4-amino-5-(3,4-difluorophenyl)-5-methyl-2-(8-(4,4,4-trifluorobutyl)-[1,2,4]triazolo[1,5-a]pyrazin-6-yl)-5H-pyrrolo[2,3-d]pyrimidin-6(7H)-one] | 11 nM
COc1ccc(C2(C3CC3)C(=O)Nc3nc(-c4cn5ncnc5c(CCCC(F)(F)F)n4)nc(N)c32)nc1 (centres unmarked) [Example 39A, 4-amino-5-cyclopropyl-5-(5-methoxypyridin-2-yl)-2-(8-(4,4,4-trifluorobutyl)-[1,2,4]triazolo[1,5-a]pyrazin-6-yl)-5H-pyrrolo[2,3-d]pyrimidin-6(7H)-one] | 20.1 nM
COc1ccc(C2(C)C(=O)Nc3nc(-c4cn5ncnc5c(CCCC(F)(F)F)n4)nc(N)c32)nc1 (centres unmarked) [Example 40A, 4-amino-5-(5-methoxypyridin-2-yl)-5-methyl-2-(8-(4,4,4-trifluorobutyl)-[1,2,4]triazolo[1,5-a]pyrazin-6-yl)-5H-pyrrolo[2,3-d]pyrimidin-6(7H)-one] | 98.9 nM
Nc1nc(-c2cn3ncnc3c(CCCC(F)(F)F)n2)nc2c1C(c1ncc(Cl)cn1)(C1CC1)C(=O)N2 (centres unmarked) [Example 41A, 4-amino-5-(5-chloropyrimidin-2-yl)-5-cyclopropyl-2-(8-(4,4,4-trifluorobutyl)-[1,2,4]triazolo[1,5-a]pyrazin-6-yl)-5H-pyrrolo[2,3-d]pyrimidin-6(7H)-one] | 27.8 nM
CC1(c2ccc(F)c(Cl)c2)C(=O)Nc2nc(-c3cn4ncnc4c(CCCC(F)(F)F)n3)nc(N)c21 (centres unmarked) [Example 42B, 4-amino-5-(3-chloro-4-fluorophenyl)-5-methyl-2-(8-(4,4,4-trifluorobutyl)-[1,2,4]triazolo[1,5-a]pyrazin-6-yl)-5H-pyrrolo[2,3-d]pyrimidin-6(7H)-one] | 8.7 nM
CC1(c2ccc(C(F)F)cn2)C(=O)Nc2nc(-c3cn4ncnc4c(CCCC(F)(F)F)n3)nc(N)c21 (centres unmarked) [Example 43B, 4-amino-5-(5-(difluoromethyl)pyridin-2-yl)-5-methyl-2-(8-(4,4,4-trifluorobutyl)-[1,2,4]triazolo[1,5-a]pyrazin-6-yl)-5H-pyrrolo[2,3-d]pyrimidin-6(7H)-one] | 45.6 nM
